Results: patent US20100041617A1, “Modulating mxa expression” (priority 2004, published 2010)

What was measured:
Assay type in all cases: cell-based, human
MxA promoter = experiment: MxA promoter-luciferase reporter screen in stably transfected PC-3M cells; details: for Fold Increase in MxA Expression: MxA promoter-luciferase reporter in PC-3M cells, Control = 1.00; for expression of luciferase from the MxA promoter: PC-3M cells, DTP 1900 chemotype library screen, FIG. 8
From the text: FIG. 7 outlines the high-throughput screen used for identifying small molecules that induce MxA expression. The MxA promoter was cloned upstream of luciferase, and transfected it into PC-3M human prostate carcinoma cells. A cell line that stably expressed this promoter-reporter construct was isolated. This cell line was used for testing whether test agents could induce MxA expression by screening for increased luciferase expression using a library of 1900 chemotypes. Interferon-α was a positive control for this assay. To develop a reporter system for drug screening, particularly for a high throughput assay procedure, the MxA promoter was cloned upstream of a nucleic acid segment that encoded luciferase (see FIG. 7). A nucleic acid encoding a eukaryotic selection marker (neomycin) was also inserted in the vector used for the reporter cassette. After transfecting this construct into human prostate carcinoma cells, a cell line that stably maintained the MxA reporter gene was cloned. Test agents, including a library of small molecules (the DTP 1900 chemotype library) were screened to ascertain whether any of the test agents increased luciferase expression. Of the 1900 compounds tested, 5 compounds activated the MxA promoter and increased luciferase expression. […] Methods similar to those described in Example 4 were used to identify compounds that activate MxA expression.

MxA protein [1] = experiment: Induction of MxA protein expression in PC-3-M prostate cancer cells by compounds; details: FIG. 9
Method: The five compounds that induced luciferase expression from the MxA were then tested to ascertain whether these compounds could also induce MxA protein expression and inhibit motility of PC-3-M prostate cancer cells. Each of the compounds could do so (FIGS. 9 and 10).

PC-3M cells = experiment: Cell migration (motility) assay through pores of a PET membrane, PC-3M cells; details: for motility of PC-3M cells: FIG. 10
Method: Effect of MxA on motility of PC-3M. […] It has been reported that type I IFN could reduce cell motility (Brouty-Boyé and Zetter, 1980), one component of metastasis. To test whether PC-3 and PC-3M cells differed in motility, these two cell lines were subjected to a cell migration assay that measured the ability of cells to migrate through pores in a polyethylene terephthalate (PET) membrane. The five compounds that induced luciferase expression from the MxA were then tested to ascertain whether these compounds could also induce MxA protein expression and inhibit motility of PC-3-M prostate cancer cells. Each of the compounds could do so (FIGS. 9 and 10).

MxA protein [2] = experiment: MxA protein induction by IFN-α, anti-MxA immunostaining, PC-3 cells; details: 24 hours, 1000 international units of IFN-α per ml, FIG. 2A
Method: (§1) PC-3 (Figure A1-4) and PC-3M (FIG. 2B) cells were grown for 24 hours on cover slips in the presence or absence of 1000 international units of IFN-α ml^1. The cells were then fixed, permeabilized, stained with monoclonal anti-MxA and Cy-3-conjugated goat anti-mouse Ig antibody and counterstained with DAPI. Immunofluorescence was visualized with a Zeiss Axiophot microscope with a 40× objective, and the images were captured on an Optronics CCD camera.
(§2) Induction of MxA expression by interferon. To determine whether IFN-α can induce MxA expression in PC-3 and PC-3M cells, cells were treated with recombinant IFN-α and subjected to immunohistochemical analysis using anti-MxA antibody and DAPI nuclear counterstaining to locate individual cells (FIG. 2). Consistent with the western blot result, this assay detected MxA protein only in untreated PC-3 and not in untreated PC-3M cells (compare upper left panels in FIGS. 2A and 2B). […] Western blotting (not shown) confirmed the IFN did induce increased MxA protein expression in both cell lines.

MxA protein [3] = experiment: MxA protein induction by IFN-α, anti-MxA immunostaining, PC-3M cells; details: 24 hours, 1000 international units of IFN-α per ml, FIG. 2B
Method: as §1, §2

PC-3 cells = experiment: Cell migration (motility) assay through pores of a PET membrane, PC-3 cells; details: 1000 IU ml^−1 IFN-α, FIG. 3A
From the text: FIG. 3A graphically illustrates the motility of PC-3M and PC-3 cells, before and after exposure to 1000 IU ml^−1 IFN-α. Mean values of percent of control PC-3M mobility are shown as bar graphs with mean percentages indicated above each bar. Each value represents the mean of two independent triplicate determinations. Error bars show range of determinations.
Effect of MxA on motility of PC-3M. […] It has been reported that type I IFN could reduce cell motility (Brouty-Boyé and Zetter, 1980), one component of metastasis. To test whether PC-3 and PC-3M cells differed in motility, these two cell lines were subjected to a cell migration assay that measured the ability of cells to migrate through pores in a polyethylene terephthalate (PET) membrane.

Compound	Fold Increase in MxA Expression (MxA promoter) [fold]	also measured
CC(=O)C1=C(N=[N+]=[N-])c2cccc3cccc(c23)C1=O [Compound 26]	0.95	
COc1cc(C2C(Cl)C(=O)N2NC(=O)c2ccc(N)cc2)cc(Br)c1O (stereo not drawn) [Compound 21]	1.64	
C=[N+](CNC(=O)CNC(=O)C(Cc1ccc([N+](=O)[O-])cc1)NC(=O)OC(C)(C)C)C(=O)CNC(=O)C(Cc1ccc([N+](=O)[O-])cc1)NC(=O)OC(C)(C)C (stereo not drawn) [Compound 24]	0.84	
O=[N+]([O-])c1ccc(N2N=C(c3ccc4ccccc4c3O)CC2c2ccc(Cl)cc2Cl)c([N+](=O)[O-])c1 (stereo not drawn) [Compound 27]	2.25	
CC1(C)OC(=S)N(c2ccccc2)C12C=Cc1cc3ccccc3cc1O2 (stereo not drawn) [Compound 31]	0.91	
C=CC[C@H]1[C@H](O[Si](C)(C)C(C)(C)C)C=CC(=O)[C@@H]1CC(=O)OCC [Compound 35]	0.68	
O=[N+]([O-])c1ccc(Nc2nc3ccccc3s2)cc1 [NSC 34444, benzothiazol-2-yl-(4-nitro-phenyl)-amine]		expression of luciferase from the MxA promoter (MxA promoter): induce expression of luciferase
O=C1CC(=O)NC(=NN2C(=O)CSC2c2ccc(Cl)cc2)N1 (stereo not drawn) [Compound 28]	1.40	
O=c1c2cc(O)ccc2n2nnc3ccc(NCCNCCO)c1c32 [Compound 19]	2.08	
CN1CCN(CCNc2ccc(CO)c3sc4ccccc4c(=O)c23)CC1 [Compound 4]	1.32	
Cc1cc(Cc2cc(C)c(N)cc2N)c(N)cc1N [NSC 7215, methylene-bis(2,4-amino-5-methyl-benzene)]		expression of luciferase from the MxA promoter (MxA promoter): induce expression of luciferase; induction of MxA protein expression (MxA protein [1]): induce expression of MxA protein; motility of PC-3M cells (PC-3M cells): decrease the motility
COc1ccc2cc(COCCC(=O)O)ccc2c1 [NSC 46669, 3-(6-Methoxy-naphthalen-2-ylmethoxy)-propionic acid]		expression of luciferase from the MxA promoter (MxA promoter): induce expression of luciferase; induction of MxA protein expression (MxA protein [1]): induce expression of MxA protein; motility of PC-3M cells (PC-3M cells): decrease the motility
O=S(=O)(c1cccc(N=C=S)c1)c1cccc(N=C=S)c1 [Compound 3]	1.11	
CCOC(=O)c1cccc(NC(=O)CBr)c1 [Compound 34]	0.27	
COc1cc(C2C(Cl)C(=O)N2NC(=O)c2ccc(N)cc2)ccc1O (stereo not drawn) [Compound 20]	1.37	
Cc1c(C(=O)/C=C/c2c(Cl)cccc2Cl)c(=O)n(-c2ccccc2)n1C [Compound 22]	0.32	
COC1CC(C)C(OC)c2cc(O)cc(c2O)NC(=O)/C(C)=C\C=C/C(C)C(OC(N)=O)/C(C)=C\C(C)C1OC (stereo not drawn) [Compound 10]	0.40	
COC1C(O)C(C)OC(OC2C(Oc3cccc4c(O)c5c(=O)oc6ccc(C)c7c(=O)oc(c34)c5c67)OC(C)C3O[C@H](c4ccccc4)OC32)C1O (stereo partly drawn) [Compound 16]	2.25	
CCN(CC)CCCNc1nccc2c(C)c3[nH]c4ccncc4c(=O)c3cc12 [Compound 15]	2.15	

Compound	Fold Increase in MxA Expression (MxA promoter) [fold]	also measured
CS(=O)(=O)CS(=O)(=O)OCCCl [Compound 11]	1.11	
Cc1cccc(NC(=O)C(=O)C(C2OC(=O)c3ccccc32)[N+](=O)[O-])c1C (stereo not drawn) [Compound 18]	0.79	
Cc1ccc2c(c1)C=CC1(O2)N(c2ccccc2)C(=S)OC1(C)C (stereo not drawn) [Compound 30]	0.85	
IFN-α		PC-3M cell motility (PC-3M cells; 1000 IU ml^−1 IFN-α, FIG. 3A): reduced PC-3M cell motility to a level comparable to that of PC-3 cells; level of MxA protein after exposure to IFN-α (MxA protein [2]): increased substantially; level of MxA protein after exposure to IFN-α (MxA protein [3]): became detectable for the first time; PC-3 cell motility (PC-3 cells): reduced its motility to levels below that seen when no IFN was present
CN(CCCn1ccnc1[N+](=O)[O-])CCCn1ccnc1[N+](=O)[O-] [Compound 23]	1.28	
Cc1cc(=O)oc2cc(OC(=O)Nc3ccc(Cl)c(Cl)c3)ccc12 [Compound 7]	1.18	
CCCS(=O)(=O)Nc1ccc(Nc2c3ccccc3nc3ccccc23)c(OC)c1.CS(=O)(=O)O [Compound 6]	3.65	
O=C1C(=C(C(=O)c2ccccc2)C(=O)c2ccccc2)OC(c2ccccc2)=C1C(=O)c1ccccc1 [Compound 36]	1.62	
CCOC(=O)[C@@H]1ON2O[C@H](OC3CCCCC3c3ccccc3)C[C@H]3OC(=O)[C@@H]1C32 (stereo partly drawn) [Compound 33]	1.03	
COC1C(O)C(C)OC(CCOC2C(Oc3cccc4c(O)c5c(=O)oc6ccc(C)c7c(=O)oc(c34)c5c67)OC(C)C(O)C2O)C1O (stereo not drawn) [NSC 5159, 10-{3-[2-(3,5-Dihydroxy-4-methoxy-6-methyl-tetrahydro-pyran-2-yl)-ethoxy]-4,5-dihydroxy-6-methyl-tetrahydro-pyran-2-yloxy}-6-hydroxy-1 methyl-benzo[h]chromeno[5,4,3-cde]chromene-5,12-dione]		expression of luciferase from the MxA promoter (MxA promoter): induce expression of luciferase; induction of MxA protein expression (MxA protein [1]): induce expression of MxA protein; motility of PC-3M cells (PC-3M cells): decrease the motility
CO[C@H]1[C@H](O)[C@@H](O)[C@H](n2c3c(Cl)cccc3c3c4c(c5c6cccc(Cl)c6[nH]c5c32)C(=O)NC4=O)O[C@@H]1CO [Compound 12]	1.46	
CC(C)(Oc1ccc(Cl)cc1)C(=O)N(C(=O)N1CCCCC1)c1ccccc1 [Compound 29]	1.03	
COc1cc2c(cc1OC)C1C(=O)c3cc(OS(C)(=O)=O)c(OC)cc3C1N(C)C2=O (stereo not drawn) [Compound 13]	2.15	
CC(C)CCc1c(Cl)nc(Cl)nc1Cl [Compound 2]	1.03	
COc1cc2c3c(n(C)c(=O)c2cc1OC)-c1cc2c(cc1C3=O)OCO2 [Compound 8]	1.71	
N/N=C(/C(=O)Nc1cccc(Cl)c1)C(C(=O)c1ccc(O)cc1O)C1OC(=O)c2ccccc21 (stereo not drawn) [Compound 17]	1.05	
CCN(CC)CCNc1ccc2nnn3c4ccc(OC(C)=O)cc4c(=O)c1c23 [Compound 32]	2.64	
O=C(O)c1ccc(Oc2nc3ccccc3s2)cc1 [NSC 122335, 4-(benzothiazol-2-yloxy)-benzoic acid]		expression of luciferase from the MxA promoter (MxA promoter): induce expression of luciferase; induction of MxA protein expression (MxA protein [1]): induce expression of MxA protein; motility of PC-3M cells (PC-3M cells): decrease the motility
